Results: US8883714B2, “Pharmaceutical compositions comprising GPR119 agonists which act as peptide YY (PYY) secretagogues” (Arena Pharmaceuticals, Inc., priority 2008, dated 2014)

Tests used:
plasma total PYY [1] = assay: Effect of oral GPR119 agonist on plasma total PYY in wild-type mice (PYY EIA kit); assay type: in vivo, C57BL/6 male mice; settings: 10 mg/kg per orally; fasted 18 h; glucose bolus 3 g/kg 30 min after treatment; blood at 0, 2, 5, 10 min; FIG. 3
Description: C57BL/6 male mice (approximately 8 weeks of age; obtained from Harlan, Indianapolis, Ind.) were fasted for 18 hours, and randomly assigned into eight groups with n=6 for each group. Mice were administered per orally with vehicle (80% polyethylene glycol 400/10% Tween 80/10% ethanol) or with a GPR119 agonist (Compound 1; (2-Fluoro-4-methanesulfonyl-phenyl)-{6-[4-(3-isopropyl-[1,2,4]oxadiazol-5-yl)-piperidin-1-yl]-5-nitro-pyrimidin-4-yl}-amine) at 10 mg/kg, as indicated in FIG. 3. Thirty minutes after treatment, a glucose bolus at 3 g/kg was delivered per orally, and blood was collected at 0 minute (no glucose bolus), 2 minutes, 5 minutes, and 10 minutes after glucose bolus. Plasma total PYY (inclusive of PYY1-36 and PYY3-36) levels were determined by using a PYY EIA kit purchased from Phoenix Pharmaceuticals, Inc. (Peptide YY (PYY) (Rat, Mouse, Porcine, Canine) EIA kit, Catalog No. EK-059-03) according to instructions provided in the kit. […] From the results shown in FIG. 3, it is apparent that the GPR119 agonist (Compound 1) stimulated plasma total PYY in the mice. Compound 1 is identical to a compound disclosed in International Patent Application No. PCT/US2004/001267 (published as WO 2004/065380).

plasma total PYY [2] = assay: Effect of oral GPR119 agonist on plasma total PYY in wild-type littermates (paper example); assay type: in vivo, wild-type mice; settings: 20 mg/kg per orally; glucose bolus 3 g/kg; blood at 0 and 5 min
Description: (§1) GPR119-deficient male mice (Chu et al, Endocrinology (2007) 148:2601-2609) and wild-type littermates are fasted for 18 hours. Mice are administered per orally with vehicle (80% polyethylene glycol 400/10% ethanol/10% Tween 80) or with a GPR119 agonist in accordance with the present invention (Compound 1; (2-Fluoro-4-methanesulfonyl-phenyl)-{6-[4-(3-isopropyl-[1,2,4]oxadiazol-5-yl)-piperidin-1-yl]-5-nitro-pyrimidin-4-yl}-amine) at 20 mg/kg. Thirty minutes after treatment, blood (100 microliter) is collected via retro orbital vein of the eye (time 0 minutes) followed by a glucose bolus at 3 g/kg (per orally). Five minutes after delivering glucose, another blood sample (100 microliter) is collected (time 5 minutes). Plasma are collected after centrifugation and plasma total PYY levels are determined by using PYY EIA kit purchased from Phoenix Pharmaceuticals, Inc. (Peptide YY (PYY) (Rat, Mouse, Porcine, Canine) EIA kit, Catalog No. EK-059-03) according to instructions provided in the kit. It can be further shown that functional GPR119 receptor is necessary for the administered GPR119 agonist to increase plasma total PYY in the mice. […] Compound 1 is identical to a compound disclosed in International Patent Application No. PCT/US2004/001267 (published as WO 2004/065380).

plasma total PYY [3] = assay: Effect of oral GPR119 agonist on plasma total PYY in GPR119-deficient (knockout) mice (paper example); assay type: in vivo, GPR119-deficient male mice; settings: 20 mg/kg per orally; glucose bolus 3 g/kg; blood at 0 and 5 min
Description: as §1

human GPR119 receptor = target: T1, human GPR119 receptor (Homo sapiens, UniProt Q8TDV5); assay: cAMP assay (Flash Plate adenylyl cyclase kit) in GPR119-transfected HEK293 cells; assay type: cell-based; settings: GPR119-transfected HEK293 cells vs empty vector; 60 min at room temperature; FIG. 2
T1 construct: Full-Length Cloning of Endogenous Human GPR119; expressed in transfected cells; host or cells: HEK293 cells, transient transfection with Lipofectamine
T1 sequence (Q8TDV5 1-335): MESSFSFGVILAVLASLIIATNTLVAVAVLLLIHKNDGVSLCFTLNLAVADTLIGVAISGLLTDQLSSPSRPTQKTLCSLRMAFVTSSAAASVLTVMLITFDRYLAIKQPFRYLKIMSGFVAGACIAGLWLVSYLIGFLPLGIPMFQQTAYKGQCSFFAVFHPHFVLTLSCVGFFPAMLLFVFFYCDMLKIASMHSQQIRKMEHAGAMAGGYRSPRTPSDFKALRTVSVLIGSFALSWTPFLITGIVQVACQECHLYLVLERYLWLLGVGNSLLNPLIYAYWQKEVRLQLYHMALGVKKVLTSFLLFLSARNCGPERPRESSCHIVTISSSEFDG
Description: Briefly, HEK293 cells were transfected with either empty vector DNA (“Vector”) or human GPR119 receptor expression plasmid DNA (“GPR119”) using Lipofectamine (Invitrogen, Carlsbad, Calif.). After 24 h, transfected cells were harvested in GIBCO (Gaithersburg, Md.) cell dissociation buffer (Catalog no. 13151-014) and resuspended in assay buffer (50% 1×PBS/50% stimulation buffer). Compound 1 was incubated with 10^5 cells per well for 60 min at room temperature. After another 2-h incubation with tracer in detection buffer, plates were counted in a Wallac (Gaithersburg, Md.) MicroBeta scintillation counter. Values of cAMP per well were extrapolated from a standard cAMP curve that was included on each assay plate.

[4] = humans, cited from earlier work

agonist activity at GPR119 receptor (stimulation of cAMP accumulation) (human GPR119 receptor)	Compound	effect on plasma total PYY (inclusive of PYY1-36 and PYY3-36) (plasma total PYY [1])	effect on plasma total PYY in wild-type mice (plasma total PYY [2])	effect on plasma total PYY in GPR119-deficient mice (plasma total PYY [3])	time of decline of serum PYY3-36 to basal levels ([4]; after infusion)	time to peak serum levels of PYY3-36 ([4]; infusion to reach normal postprandial circulatory concentrations)	reduction of food intake ([4]; infusion, over 24 hours)
agonist of GPR119 receptor	CC(C)c1noc(C2CCN(c3ncnc(Nc4ccc(S(C)(=O)=O)cc4F)c3[N+](=O)[O-])CC2)n1 [Compound 1, (2-Fluoro-4-methanesulfonyl-phenyl)-{6-[4-(3-isopropyl-[1,2,4]oxadiazol-5-yl)-piperidin-1-yl]-5-nitro-pyrimidin-4-yl}-amine]	increased plasma total PYY	stimulate plasma total PYY in the wild-type mice	not in the GPR119-deficient mice			
	PYY3-36: generated from PYY1-36 by cleavage of the N-terminal Tyr and Pro residues by dipeptidyl peptidase IV; high-affinity Y2R selective agonist				≤ 30 min	≤ 15 min	33%
